Data: patent publication US20210255193A1, “LYSINE REACTIVE PROBES AND USES THEREOF” (The Scripps Research Institute, priority 2017, published 2021)

What was measured:
Test in all cases: competitive isoTOP-ABPP
Format in all cases: binding
[1] = biological target: T1, NT5DC1 5-nucleotidase domain-containing protein 1 (Homo sapiens, UniProt Q5TFE4); conditions: for R value (DMSO/fragment) for probe 1 labeling: Q5TFE4_K123; for R value (DMSO/fragment) for probe 1 labeling / isoTOP-ABPP reactivity ratio at lysine Q5TFE4_K123 / isoTOP-ABPP ratio (R) at liganded lysine Q5TFE4_K123: 50 uM, in vitro; for R value (DMSO/fragment) for probe 1 labeling / isoTOP-ABPP reactivity ratio at lysine Q5TFE4_K123: 231 sol; for isoTOP-ABPP ratio (R) at liganded lysine Q5TFE4_K123: sol, 231; for isoTOP-ABPP ratio, lysine Q5TFE4_K123: 100 uM_231_sol_in vitro
T1 construct: isoTOP-ABPP experiments performed in cell lysates (in vitro); endogenous in cells; host or cells: soluble proteome of human cancer cell lines (MDA-MB-231; Ramos and Jurkat also prepared)
T1 sequence (Q5TFE4 1-455): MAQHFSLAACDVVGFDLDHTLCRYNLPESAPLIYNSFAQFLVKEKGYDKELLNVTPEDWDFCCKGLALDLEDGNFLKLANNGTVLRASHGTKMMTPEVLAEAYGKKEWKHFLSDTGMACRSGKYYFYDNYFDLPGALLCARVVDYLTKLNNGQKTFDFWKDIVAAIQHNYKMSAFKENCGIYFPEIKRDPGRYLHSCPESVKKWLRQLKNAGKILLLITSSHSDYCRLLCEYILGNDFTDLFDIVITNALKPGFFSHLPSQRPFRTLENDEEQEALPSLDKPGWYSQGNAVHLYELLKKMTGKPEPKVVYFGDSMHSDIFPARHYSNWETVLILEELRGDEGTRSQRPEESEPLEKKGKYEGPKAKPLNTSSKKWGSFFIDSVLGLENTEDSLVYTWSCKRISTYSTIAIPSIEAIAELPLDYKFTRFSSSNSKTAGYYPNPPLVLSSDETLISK
How it was run: (§1)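 Lysine engagement is reported as R, the MS1 peak-area ratio of heavy-tagged DMSO to light-tagged compound samples. Final fragment concentrations were 50 μM for activated esters and 100 μM for guanidinylating agents; STP-alkyne probe 0.1 mM, 1 h.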

[2] = biological target: T2, NUDT22 Nucleoside diphosphate-linked moiety X motif 22 (Homo sapiens, UniProt Q9BRQ3); conditions: for R value (DMSO/fragment) for probe 1 labeling: Q9BRQ3_K60; for R value (DMSO/fragment) for probe 1 labeling / isoTOP-ABPP reactivity ratio at lysine Q9BRQ3_K60 / isoTOP-ABPP ratio (R) at liganded lysine Q9BRQ3_K60: 50 uM, in vitro; for R value (DMSO/fragment) for probe 1 labeling / isoTOP-ABPP reactivity ratio at lysine Q9BRQ3_K60: 231 sol; for isoTOP-ABPP ratio (R) at liganded lysine Q9BRQ3_K60: sol, 231
T2 construct: isoTOP-ABPP experiments performed in cell lysates (in vitro); endogenous in cells; host or cells: soluble proteome of human cancer cell lines (MDA-MB-231; Ramos and Jurkat also prepared)
T2 sequence (Q9BRQ3 1-303): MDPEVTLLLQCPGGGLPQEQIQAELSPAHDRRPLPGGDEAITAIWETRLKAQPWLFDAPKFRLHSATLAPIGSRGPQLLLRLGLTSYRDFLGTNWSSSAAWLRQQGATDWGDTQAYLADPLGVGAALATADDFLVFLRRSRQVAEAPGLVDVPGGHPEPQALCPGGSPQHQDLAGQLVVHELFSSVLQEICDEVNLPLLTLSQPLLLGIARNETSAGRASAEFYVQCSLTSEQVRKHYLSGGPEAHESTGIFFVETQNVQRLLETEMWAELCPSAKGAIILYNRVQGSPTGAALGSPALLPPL
How it was run: as §1

[3] = biological target: T3, CDK2 Cyclin-dependent kinase 2 (Homo sapiens, UniProt P24941); conditions: for R value (DMSO/fragment) for probe 1 labeling: P24941_K33; for R value (DMSO/fragment) for probe 1 labeling / isoTOP-ABPP reactivity ratio at lysine P24941_K33 / isoTOP-ABPP ratio (R) at liganded lysine P24941_K33: 50 uM, in vitro; for R value (DMSO/fragment) for probe 1 labeling / isoTOP-ABPP reactivity ratio at lysine P24941_K33: 231 sol; for isoTOP-ABPP ratio (R) at liganded lysine P24941_K33: sol, 231
T3 construct: isoTOP-ABPP experiments performed in cell lysates (in vitro); endogenous in cells; host or cells: soluble proteome of human cancer cell lines (MDA-MB-231; Ramos and Jurkat also prepared)
How it was run: as §1

[4] = biological target: T4, MRPL12 39S ribosomal protein L12, mitochondrial (Homo sapiens, UniProt P52815); conditions: for R value (DMSO/fragment) for probe 1 labeling: P52815_K87; for R value (DMSO/fragment) for probe 1 labeling / isoTOP-ABPP reactivity ratio at lysine P52815_K87 / isoTOP-ABPP ratio (R) at liganded lysine P52815_K87: 50 uM, in vitro; for R value (DMSO/fragment) for probe 1 labeling / isoTOP-ABPP reactivity ratio at lysine P52815_K87: 231 sol; for isoTOP-ABPP ratio (R) at liganded lysine P52815_K87: sol, 231; for isoTOP-ABPP ratio, lysine P52815_K87: 50 uM_231_sol_in vitro, possible other lysine B4DLN1_K87, P52815_K91
T4 construct: isoTOP-ABPP experiments performed in cell lysates (in vitro); endogenous in cells; host or cells: soluble proteome of human cancer cell lines (MDA-MB-231, Ramos, Jurkat)
How it was run: as §1

O=C(CCc1cn(-c2ccccc2)nc1-c1ccccc1)Oc1c(F)c(F)c(F)c(F)c1F [fragment 19, Pentafluorophenyl 3-(1,3-diphenyl-1H-pyrazol-4-yl)propanoate]
R value (DMSO/fragment) for probe 1 labeling [1]: 20.0 | R value (DMSO/fragment) for probe 1 labeling [2]: 0.9

O=C(Oc1c(F)c(F)c(F)c(F)c1F)C(c1ccccc1)c1ccccc1 [fragment 20, Pentafluorophenyl 2,2-diphenylacetate]
R value (DMSO/fragment) for probe 1 labeling [3]: 0.9 | R value (DMSO/fragment) for probe 1 labeling [4]: 0.9 | R value (DMSO/fragment) for probe 1 labeling [1]: 1.0 | R value (DMSO/fragment) for probe 1 labeling [2]: 0.8

O=C(Oc1c(F)c(F)c(F)c(F)c1F)c1cc(C(F)(F)F)cc(C(F)(F)F)c1 [fragment 21, Pentafluorophenyl 3,5-bis(trifluoromethyl)benzoate]
R value (DMSO/fragment) for probe 1 labeling [3]: 1.0 | R value (DMSO/fragment) for probe 1 labeling [4]: 0.6 | R value (DMSO/fragment) for probe 1 labeling [1]: 1.2 | R value (DMSO/fragment) for probe 1 labeling [2]: 0.8

Cn1cc(CC(=O)Oc2c(F)c(F)c(F)c(F)c2F)c2ccccc21 [fragment 22, Pentafluorophenyl 2-(1-methyl-1H-indol-3-yl)acetate]
R value (DMSO/fragment) for probe 1 labeling [3]: 1.5 | R value (DMSO/fragment) for probe 1 labeling [4]: 1.4

COc1cc(CCC(=O)Oc2c(F)c(F)c(F)c(F)c2F)cc(OC)c1OC [fragment 23, Pentafluorophenyl 3-(3,4,5-trimethoxyphenyl)propanoate]
R value (DMSO/fragment) for probe 1 labeling [1]: 1.5

O=C(Oc1c(F)c(F)c(F)c(F)c1F)C1CCN(C(=O)OCc2ccccc2)CC1 [fragment 24, 1-Benzyl 4-(pentafluorophenyl) piperidine-1,4-dicarboxylate]
isoTOP-ABPP reactivity ratio at lysine Q5TFE4_K123 [1]: 1.1

O=C(Oc1c(F)c(F)c(F)c(F)c1F)c1ccc2ccccc2n1 [fragment 25, Pentafluorophenyl quinoline-2-carboxylate]
isoTOP-ABPP reactivity ratio at lysine Q9BRQ3_K60 [2]: 0.8

O=C(CCc1coc2cc(F)ccc2c1=O)Oc1c(F)c(F)c(F)c(F)c1F [fragment 26, Pentafluorophenyl 3-(7-fluoro-4-oxo-4H-chromen-3-yl)propanoate]
isoTOP-ABPP reactivity ratio at lysine Q9BRQ3_K60 [2]: 0.8

O=C(CN1C(=O)c2ccccc2C1=O)Oc1c(F)c(F)c(F)c(F)c1F [fragment 27, Pentafluorophenyl 2-(1,3-dioxoisoindolin-2-yl)acetate]
isoTOP-ABPP reactivity ratio at lysine Q9BRQ3_K60 [2]: 1.2

CCn1cc(C(=O)Oc2c(F)c(F)c(F)c(F)c2F)c(=O)c2ccc(C)nc21 [fragment 28, Pentafluorophenyl 1-ethyl-7-methyl-4-oxo-1,4-dihydro-1,8-naphthyridine-3-carboxylate]
isoTOP-ABPP reactivity ratio at lysine P52815_K87 [4]: 0.8 | isoTOP-ABPP reactivity ratio at lysine Q5TFE4_K123 [1]: 1.2 | isoTOP-ABPP reactivity ratio at lysine Q9BRQ3_K60 [2]: 1.0

O=C(CCc1cn(-c2ccccc2)nc1-c1ccccc1)Oc1ccc([N+](=O)[O-])cc1[N+](=O)[O-] [fragment 29, 2,4-Dinitrophenyl 3-(1,3-diphenyl-1H-pyrazol-4-yl)propanoate]
isoTOP-ABPP reactivity ratio at lysine P24941_K33 [3]: 0.9 | isoTOP-ABPP reactivity ratio at lysine P52815_K87 [4]: 1.1 | isoTOP-ABPP reactivity ratio at lysine Q5TFE4_K123 [1]: 1.2 | isoTOP-ABPP reactivity ratio at lysine Q9BRQ3_K60 [2]: 0.8

O=C(Oc1ccc([N+](=O)[O-])cc1[N+](=O)[O-])c1cc(C(F)(F)F)cc(C(F)(F)F)c1 [fragment 31, 2,4-Dinitrophenyl 3,5-bis(trifluoromethyl)benzoate]
isoTOP-ABPP reactivity ratio at lysine Q9BRQ3_K60 [2]: 1.1

Cn1cc(CC(=O)Oc2ccc([N+](=O)[O-])cc2[N+](=O)[O-])c2ccccc21 [fragment 32, 2,4-Dinitrophenyl 2-(1-methyl-1H-indol-3-yl)acetate]
isoTOP-ABPP reactivity ratio at lysine Q9BRQ3_K60 [2]: 20.0

COc1cc(CCC(=O)Oc2ccc([N+](=O)[O-])cc2[N+](=O)[O-])cc(OC)c1OC [fragment 33, 2,4-Dinitrophenyl 3-(3,4,5-trimethoxyphenyl)propanoate]
isoTOP-ABPP reactivity ratio at lysine P24941_K33 [3]: 0.7 | isoTOP-ABPP reactivity ratio at lysine P52815_K87 [4]: 2.1

O=C(Oc1ccc([N+](=O)[O-])cc1[N+](=O)[O-])C1CCN(C(=O)OCc2ccccc2)CC1 [fragment 34, 1-Benzyl 4-(2,4-dinitrophenyl) piperidine-1,4-dicarboxylate]
isoTOP-ABPP ratio (R) at liganded lysine P24941_K33 [3]: 1.0

O=C(Oc1ccc([N+](=O)[O-])cc1[N+](=O)[O-])c1ccc2ccccc2n1 [fragment 35, 2,4-Dinitrophenyl quinoline-2-carboxylate]
isoTOP-ABPP ratio (R) at liganded lysine P24941_K33 [3]: 1.6 | isoTOP-ABPP ratio (R) at liganded lysine P52815_K87 [4]: 0.9 | isoTOP-ABPP ratio (R) at liganded lysine Q9BRQ3_K60 [2]: 1.1

O=C(CCc1coc2cc(F)ccc2c1=O)Oc1ccc([N+](=O)[O-])cc1[N+](=O)[O-] [fragment 36, 2,4-Dinitrophenyl 3-(7-fluoro-4-oxo-4H-chromen-3-yl)propanoate]
isoTOP-ABPP ratio (R) at liganded lysine Q5TFE4_K123 [1]: 20.0

O=C(Oc1ccc([N+](=O)[O-])cc1[N+](=O)[O-])c1ccc(-c2ccccc2)cc1 [fragment 37, 2,4-Dinitrophenyl [1,1′-biphenyl]-4-carboxylate]
isoTOP-ABPP ratio (R) at liganded lysine P24941_K33 [3]: 0.9 | isoTOP-ABPP ratio (R) at liganded lysine Q5TFE4_K123 [1]: 1.8 | isoTOP-ABPP ratio (R) at liganded lysine Q9BRQ3_K60 [2]: 1.0

O=C(CC12CC3CC(CC(C3)C1)C2)Oc1ccc([N+](=O)[O-])cc1[N+](=O)[O-] [fragment 38, 2,4-Dinitrophenyl 2-(adamantan-1-yl)acetate]
isoTOP-ABPP ratio (R) at liganded lysine P24941_K33 [3]: 0.9 | isoTOP-ABPP ratio (R) at liganded lysine P52815_K87 [4]: 0.9

O=C(Oc1ccc([N+](=O)[O-])cc1[N+](=O)[O-])c1ccc(Oc2ccccc2)cc1 [fragment 39, 2,4-Dinitrophenyl 4-phenoxybenzoate]
isoTOP-ABPP ratio (R) at liganded lysine P24941_K33 [3]: 1.0 | isoTOP-ABPP ratio (R) at liganded lysine P52815_K87 [4]: 1.1 | isoTOP-ABPP ratio (R) at liganded lysine Q9BRQ3_K60 [2]: 0.9

O=C(Oc1ccc([N+](=O)[O-])cc1[N+](=O)[O-])c1ccccc1Nc1cccc(C(F)(F)F)c1 [fragment 40, 2,4-Dinitrophenyl 2-((3-(trifluoromethyl)phenyl)amino)benzoate]
isoTOP-ABPP ratio (R) at liganded lysine P24941_K33 [3]: 1.0 | isoTOP-ABPP ratio (R) at liganded lysine Q9BRQ3_K60 [2]: 0.9

CC(C)(C)OC(=O)NCCCC(=O)Oc1ccc([N+](=O)[O-])cc1[N+](=O)[O-] [fragment 41, 2,4-Dinitrophenyl 4-((tert-butoxycarbonyl)amino)butanoate]
isoTOP-ABPP ratio (R) at liganded lysine P24941_K33 [3]: 1.0 | isoTOP-ABPP ratio (R) at liganded lysine P52815_K87 [4]: 4.1 | isoTOP-ABPP ratio (R) at liganded lysine Q9BRQ3_K60 [2]: 20.0

N#Cc1ccc(C(=O)Oc2ccc([N+](=O)[O-])cc2[N+](=O)[O-])cc1 [fragment 44, 2,4-Dinitrophenyl 4-cyanobenzoate]
isoTOP-ABPP ratio, lysine P24941_K33 ([3]; 50 uM_231_sol_in vitro): 1.1 | isoTOP-ABPP ratio, lysine P52815_K87 [4]: 1.1

O=C(Oc1c(F)c(F)c(C(F)(F)F)c(F)c1F)c1cc(C(F)(F)F)cc(C(F)(F)F)c1 [fragment 47, 2,3,5,6-Tetrafluoro-4-(trifluoromethyl)phenyl 3,5-bis(trifluoromethyl)benzoate]
isoTOP-ABPP ratio, lysine P52815_K87 [4]: 1.1 | isoTOP-ABPP ratio, lysine Q9BRQ3_K60 ([2]; 50 uM_231_sol_in vitro): 1.1

O=C(Oc1c(F)c(F)cc(F)c1F)c1cc(C(F)(F)F)cc(C(F)(F)F)c1 [fragment 48, 2,3,5,6-Tetrafluorophenyl 3,5-bis(trifluoromethyl)benzoate]
isoTOP-ABPP ratio, lysine P52815_K87 [4]: 0.9

COC(=O)NC(=NC(=O)OCC1c2ccccc2-c2ccccc21)n1cccn1 [fragment 49, N-Methoxycarbonyl-N′-9-fluorenylmethoxycarbonyl-pyrazole-1-carboxamidine]
isoTOP-ABPP ratio, lysine Q5TFE4_K123 [1]: 1.3

CC(C)(C)OC(=O)N=C(NC(=O)OC(C)(C)C)n1cccn1 [fragment 50, reference compound]
isoTOP-ABPP ratio, lysine P24941_K33 ([3]; 100 uM_231_sol_in vitro): 2.3 | isoTOP-ABPP ratio, lysine Q5TFE4_K123 [1]: 1.1 | isoTOP-ABPP ratio, lysine Q9BRQ3_K60 ([2]; 100 uM_231_sol_in vitro): 1.0

NC(=O)c1cc(C(F)(F)F)cc(C(F)(F)F)c1 [fragment 51, reference compound]
isoTOP-ABPP ratio, lysine P52815_K87 [4]: 0.9
